Data published in US20190359653A1, “SELECTIVE PEPTIDE INHIBITORS OF FRIZZLED” (Genentech, Inc., priority 2016, published 2019).

Columns and labels:
[1] = system: organoids derived from Lgr5-GFP mice; assay: flow cytometry of Lgr5-GFP stem cells in organoids; assay type: cell-based, mouse; details: compared to control DMSO; FIGS. 41A-41C
Protocol: The pharmacological effect of dFz7-21 was further investigated by conducting RNA sequencing on intestinal organoid samples that were treated with dFz7-21 for 6 and 24 h. […] Concurrently, there was also an up-regulation of enterocyte markers (pro-differentiation) in the dFz7-21 treated organoids. Among the most down regulated genes upon dFz7-21 treatment were Lgr5, Olfm4 and Asc12. […] Finally, to assess the effect of dFz7-21 directly on stem cells, the presence of GFP+ stem cells in organoids derived from Lgr5-GFP mice was monitored as described in Tian, H. et al. “A reserve stem cell population in small intestine renders Lgr5-positive cells dispensable.” Nature 478, 255-259 (2011). Treatment with dFz7-21 reduced the number of Lgr5-GFP stem cells compared to control DMSO as assayed by flow cytometry (see FIGS. 41A-41C) and confocal microscopy (data not shown). In FIGS. 41A and 41B, Lgr5-GFP organoids were dissociated, treated with SYTOX and analyzed by flow cytometry.

[2] = system: Wnt1-stimulated β-catenin signaling in HEK293-TB cells; assay: luciferase reporter assay, HEK293-TB cells transfected with pCDNA3.2-Wnt1; assay type: cell-based
[3] = system: receptor-independent β-catenin signaling in 6-BIO-treated HEK293-TB cells; assay: epistasis study, HEK293-TB cells stimulated with 6-BIO; assay type: cell-based; details: 10 μM 6-BIO, 6 hr; FIG. 2E
[4] = target: T1, hFZD7 CRD-His (Homo sapiens, UniProt O75084); assay: SEC-MALS of hFZD7 CRD-His incubated with peptide; assay type: binding
T1 construct: hFZD7 CRD-His [Gln33-Gly168] was expressed as a secreted protein in Trichoplusia ni cells expressing EndoH; made in house; host or cells: Trichoplusia ni cells expressing EndoH, treated with Kifunensine (baculovirus)
Protocol: Samples were resolved by a Superdex S200 3.2/300 column (General Electric Healthcare Life Science, Pittsburgh, Pa.; cat. no. 28990946) at 0.15 mL/min in 150 mM NaCl, 50 mM Tris-HCl pH 7.5 buffer with 1% DMSO final concentration. Runs were performed on a 1260 infinity HPLC (Agilent Technology, Santa Clara, Calif.) connected to a Dawn Heleos-II multi-angle static Light Scattering (MALS) detector and a Optilab T-rEX differential Refractive Index (dRI) detector (Wyatt Technologies, Santa Barbara, Calif.).
Samples were resolved by a Superdex S200 3.2/300 column (General Electric Healthcare Life Science, Pittsburgh, Pa.; 28990946) at a 0.15 mL/min in 150 mM NaCl, 50 mM Tris-HCl pH 7.5 buffer with 1% DMSO final concentration. Column was connected to a 1260 infinity HPLC (Agilent Technology, Santa Clara, Calif.) connected to a Dawn Heleos-II Multi-Angle static Light Scattering (MALS) detector and the Optilab T-rEX differential Refractive Index (dRI) detectors (Wyatt Technologies, Santa Barbara, Calif.).

[5] = system: Wnt3a binding to FZD1 CRD, FZD2 CRD, and FZD7 CRD; assay: ELISA of biotinylated Wnt3a binding to FZD CRD-Fc; details: peptide 0-10 μM
Protocol: (§1) 384-well Maxisorp plates (cat. no. 464718; Thermo Scientific) were incubated with 30 μL of Neutravidin (cat. no. 31000, Thermo Scientific; 2 μg/mL in PBS) overnight at 4° C. Plates were then washed with PBST and blocked with PBS/1% BSA for 1 hour at RT and then washed with PBST prior to further processing. The binding assay was conducted in 96 well plates (cat no. 83007-374; VWR) which were blocked with PBS/1% BSA overnight at 4° C. hFZD4 CRD-Fc or hFZD7 CRD-Fc (63 ng/mL) were incubated with either Bio-Wnt3a (25 ng/mL) or Bio-Wnt5a (50 ng/mL) in the presence of 4-fold serial dilutions of the indicated peptide in PBS overnight at 4° C. All assays included hFZD9 CRD-mIgG2A protein as a negative control. hFZD7 CRD-His was suspended in 150 mM NaCl, 50 mM Tris-HCl at pH 7.5 and when used in assays an equal volume of the same buffer control was used. The binding assay mixtures were transferred to the Neutravidin coated plates and incubated for ˜1 h at RT. The wells were then washed with PBST, incubated with anti-hIgG1-HRP (1:10,000 suspended in PBS supplemented with 1% BSA; cat. no. A18817, Invitrogen), and washed again with PBST. The signal was developed with the addition of TMB reagent (following the manufacturer's recommendation; KPL; 50-76-00) for 15 min prior to the addition of an equal volume of 1 M phosphoric acid for 10 min Absorbance was measured at 450 nm using a Tekan M1000 plate reader. Values were collected and plotted using Prism Graphpad software. All assay conditions using peptides were at 1% DMSO final concentration.
Without being bound be theory, the substantial conformational change induced by dFz7-21 on hFZD7 CRD, as exemplified by the altered geometry of the lipid binding cavity, may facilitate the accommodation of two Wnt molecules simultaneously onto the hFZD7 CRD dimer (FIG. 4e-h).
Similar results were observed using Wnt3a. […] Binding of Wnt3a to FZD1 CRD, FZD2 CRD, and FZD7 CRD increased in the presence of dFz7-21 at concentrations below about 0.5 μM (FIG. 22E), with the most binding seen in the presence of 0.01 μM-0.05 μM dFz7-21. […] Fz7-21S had no effect on Binding of Wnt3a to any of the FZD CRDs tested (FIG. 22F).

[6] = target: T2, Wnt5a binding to FZD7 CRD (Homo sapiens, UniProt O75084); assay: ELISA of Wnt5a binding to FZD7 CRD, Fz7-21-derived peptide dimers; details: FIGS. 23A-23J
T2 construct: hFZD7 CRD-Fc (cat no. 6178-FZ); purchased R&D systems 6178-FZ
Protocol: as §1, with “The wells were then washed with PBST, incubated with anti-hIgG1-HRP (1:10,000 suspended in PBS supplemented with 1% BSA; cat. no. A18817, Invitrogen), and washed again with PBST.” left out, “Values were collected and plotted using Prism Graphpad software. All assay conditions using peptides were at 1% DMSO final concentration.” left out

## LPSDDLEFWCHVMY [dFz7-21]
[1]
  number of Lgr5-GFP stem cells: reduced

## LPSDDLEFWSHVMY [Fz7-21S, negative control]
[2]
  inhibition of Wnt1 signaling: not found to inhibit
[3]
  inhibition of Wnt signaling in 6-BIO-treated cells: Neither Fz7-21 nor Fz7-21S inhibited
[4]; 1:10, relative to the DMSO control
  ΔMW (kDa): 2.6 kDa
[4]; protein:peptide 1:10
  MW (kDa): 23.5 kDa
[5]
  effect on Wnt3a binding to FZD1, FZD2 and FZD7 CRD: showed no effect
[6]
  effect on recruitment of Wnt5a to FZD7 CRD: no effect
